According to patent US20150031572A1, “MEANS AND METHODS FOR ASSESSING NEURONAL TOXICITY” (priority 2012, published 2015):
Counter-ions that a name gives are not always drawn. Marks after values point to notes of the source that are not given here. One block for each compound: values may come before it.

Experiment: Plasma metabolite profiling (GC-MS, LC-MS, SPE-LC-MS) of rats dosed once daily over 28 days; treatment ratios versus untreated control
Type: in vivo, rat
In short: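 Male and female rats (5/sex/group) dosed once daily for 28 days; fasted anaesthetized animals bled retro-orbitally (EDTA plasma) on days 7, 14, 28, stored −80 °C under N2. Polar and lipid fractions profiled by GC-MS (derivatized), LC-MS/MRM; steroids by online SPE-LC-MS. Pool-normalized data; treatment ratios vs sex-matched controls, Welch test p-values.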

[1] = plasma, female rats, day 7, high dose, Table 4a
[2] = plasma, female rats, day 7, high dose, Table 4b
[3] = plasma, female rats, day 7, high dose, Table 6c
[4] = plasma, female rats, day 7, high dose, Table 6d
[5] = plasma, female rats, day 14, high dose, Table 4a
[6] = plasma, female rats, day 14, high dose, Table 4b
[7] = plasma, female rats, day 14, high dose, Table 6c
[8] = plasma, female rats, day 14, high dose, Table 6d
[9] = plasma, female rats, day 28, high dose, Table 4a
[10] = plasma, female rats, day 28, high dose, Table 4b
[11] = plasma, female rats, day 28, high dose, Table 6c
[12] = plasma, female rats, day 28, high dose, Table 6d
[13] = plasma, male rats, day 7, high dose, Table 3a
[14] = plasma, male rats, day 7, high dose, Table 3b
[15] = plasma, male rats, day 14, high dose, Table 3a
[16] = plasma, male rats, day 14, high dose, Table 3b
[17] = plasma, male rats, day 28, high dose, Table 3a
[18] = plasma, male rats, day 28, high dose, Table 3b
[19] = plasma, female rats, day 7, high dose, Table 9a
[20] = plasma, female rats, day 7, high dose, Table 9b
[21] = plasma, female rats, day 14, high dose, Table 9a
[22] = plasma, female rats, day 14, high dose, Table 9b
[23] = plasma, female rats, day 28, high dose, Table 9a
[24] = plasma, female rats, day 28, high dose, Table 9b
[25] = plasma, male rats, day 7, high dose, Table 9c
[26] = plasma, male rats, day 7, high dose, Table 9d
[27] = plasma, male rats, day 14, high dose, Table 9c
[28] = plasma, male rats, day 14, high dose, Table 9d
[29] = plasma, male rats, day 28, high dose, Table 9c
[30] = plasma, male rats, day 28, high dose, Table 9d

Ceramide (d18:1,C24:1), ratio versus control [1]: 1.23
Docosapentaenoic acid (C22:cis[7,10,13,16,19]5), ratio versus control [1]: 2.26*
Elaidic acid (C18:trans[9]1), ratio versus control [1]: 1.52*
Galactose, lipid fraction, ratio versus control [1]: 1.46*
Myristic acid (C14:0), ratio versus control [1]: 1.53*
Phosphatidylcholine (C16:0,C16:0), ratio versus control [1]: 1.4*
Progesterone, ratio versus control [1]: 9.81*
TAG No 07, ratio versus control [1]: 3.4*
Creatinine, ratio versus control [2]: 0.87
Glutamate, ratio versus control [2]: 0.67*
Glycine, ratio versus control [2]: 0.86*
Lactate, ratio versus control [2]: 0.6*
Myristic acid (C14:0), ratio versus control [2]: 1.53
Normetanephrine, ratio versus control [2]: 0.73*
Phosphocreatine, ratio versus control [2]: 0.61*
Serotonin (5-HT), ratio versus control [2]: 0.11*
Uric acid, ratio versus control [2]: 0.51*
4-Hydroxysphinganine (t18:0, Phytosphingosine), total, ratio versus control [3]: 1.49*
Docosahexaenoic acid (C22:cis[4,7,10,13,16,19]6), ratio versus control [3]: 1.7*
Docosapentaenoic acid (C22:cis[7,10,13,16,19]5), ratio versus control [3]: 2.26*
Galactose, lipid fraction, ratio versus control [3]: 1.46*
Palmitic acid (C16:0), ratio versus control [3]: 1.56*
Phosphatidylcholine (C16:0,C16:0), ratio versus control [3]: 1.4*
Phosphatidylcholine (C16:0,C22:6), ratio versus control [3]: 1.02
Phosphatidylcholine No 02, ratio versus control [3]: 1.17*
TAG (C16:0,C16:1), ratio versus control [3]: 4.38*
TAG (C16:0,C18:1,C18:3), ratio versus control [3]: 2.8*
TAG (C16:0,C18:2), ratio versus control [3]: 2.47*
TAG (C18:2,C18:2), ratio versus control [3]: 2.44*
TAG (C18:2,C18:3), ratio versus control [3]: 3.48*
TAG (C18:3,C18:2,C18:1), ratio versus control [3]: 3.89*
TAG No 059, ratio versus control [3]: 3.12*
4-Hydroxyphenylpyruvate, ratio versus control [4]: 0.42*
Glycine, ratio versus control [4]: 0.86*
Lactate, ratio versus control [4]: 0.6*
Lysophosphatidylcholine (C16:0), ratio versus control [4]: 0.99*
Uric acid, ratio versus control [4]: 0.51*
Ceramide (d18:1,C24:1), ratio versus control [5]: 1.47*
Docosapentaenoic acid (C22:cis[7,10,13,16,19]5), ratio versus control [5]: 1.55*
Elaidic acid (C18:trans[9]1), ratio versus control [5]: 0.97
Galactose, lipid fraction, ratio versus control [5]: 1.17*
Myristic acid (C14:0), ratio versus control [5]: 1.09
Phosphatidylcholine (C16:1,C18:2), ratio versus control [5]: 1.06
Progesterone, ratio versus control [5]: 1.28
TAG No 07, ratio versus control [5]: 0.62
myo-Inositol, lipid fraction, ratio versus control [5]: 1.26*
Creatinine, ratio versus control [6]: 1.02
Glutamate, ratio versus control [6]: 0.71*
Glycine, ratio versus control [6]: 0.86*
Lactate, ratio versus control [6]: 0.66
Myristic acid (C14:0), ratio versus control [6]: 1.09
Normetanephrine, ratio versus control [6]: 0.88
Serotonin (5-HT), ratio versus control [6]: 0.59
Uric acid, ratio versus control [6]: 0.5*
4-Hydroxysphinganine (t18:0, Phytosphingosine), total, ratio versus control [7]: 1.43*
Docosahexaenoic acid (C22:cis[4,7,10,13,16,19]6), ratio versus control [7]: 1.43*
Docosapentaenoic acid (C22:cis[7,10,13,16,19]5), ratio versus control [7]: 1.55*
Galactose, lipid fraction, ratio versus control [7]: 1.17*
Phosphatidylcholine (C16:0,C20:5), ratio versus control [7]: 0.99
Phosphatidylcholine (C16:0,C22:6), ratio versus control [7]: 1.22*
Phosphatidylcholine (C16:1,C18:2), ratio versus control [7]: 1.06
Phosphatidylcholine No 02, ratio versus control [7]: 1.19*
TAG (C16:0,C16:1), ratio versus control [7]: 0.81
TAG (C16:0,C18:1,C18:3), ratio versus control [7]: 0.76
TAG (C16:0,C18:2), ratio versus control [7]: 0.91
TAG (C18:2,C18:2), ratio versus control [7]: 0.81
TAG (C18:2,C18:3), ratio versus control [7]: 0.76
TAG (C18:3,C18:2,C18:1), ratio versus control [7]: 0.91
TAG No 059, ratio versus control [7]: 0.84
4-Hydroxyphenylpyruvate, ratio versus control [8]: 0.21*
Glycine, ratio versus control [8]: 0.86*
Lactate, ratio versus control [8]: 0.66
Lysophosphatidylcholine (C16:0), ratio versus control [8]: 1
Uric acid, ratio versus control [8]: 0.5*
Ceramide (d18:1,C24:1), ratio versus control [9]: 1.2
Docosapentaenoic acid (C22:cis[7,10,13,16,19]5), ratio versus control [9]: 1.54*
Elaidic acid (C18:trans[9]1), ratio versus control [9]: 1.18
Galactose, lipid fraction, ratio versus control [9]: 1.22
Myristic acid (C14:0), ratio versus control [9]: 1.18
Phosphatidylcholine (C16:1,C18:2), ratio versus control [9]: 1.5*
Progesterone, ratio versus control [9]: 2.41*
TAG No 07, ratio versus control [9]: 1.02
myo-Inositol, lipid fraction, ratio versus control [9]: 1.2
Creatinine, ratio versus control [10]: 0.89*
Glutamate, ratio versus control [10]: 0.76*
Glycine, ratio versus control [10]: 0.91
Lactate, ratio versus control [10]: 0.62*
Myristic acid (C14:0), ratio versus control [10]: 1.18
Normetanephrine, ratio versus control [10]: 0.95
Phosphocreatine, ratio versus control [10]: 0.47
Serotonin (5-HT), ratio versus control [10]: 1.37
Uric acid, ratio versus control [10]: 0.73*
Docosahexaenoic acid (C22:cis[4,7,10,13,16,19]6), ratio versus control [11]: 1.26
Docosapentaenoic acid (C22:cis[7,10,13,16,19]5), ratio versus control [11]: 1.54*
Galactose, lipid fraction, ratio versus control [11]: 1.22
Palmitic acid (C16:0), ratio versus control [11]: 1.2*
Phosphatidylcholine (C16:0,C20:5), ratio versus control [11]: 1.17*
Phosphatidylcholine (C16:1,C18:2), ratio versus control [11]: 1.5*
Phosphatidylcholine No 02, ratio versus control [11]: 1.2*
TAG (C16:0,C16:1), ratio versus control [11]: 1.75*
TAG (C16:0,C18:1,C18:3), ratio versus control [11]: 1.3*
TAG (C16:0,C18:2), ratio versus control [11]: 1.38*
TAG (C18:2,C18:3), ratio versus control [11]: 1.46*
TAG (C18:3,C18:2,C18:1), ratio versus control [11]: 1.44*
TAG No 059, ratio versus control [11]: 1.58*
4-Hydroxyphenylpyruvate, ratio versus control [12]: 1.02
Glycine, ratio versus control [12]: 0.91
Lactate, ratio versus control [12]: 0.62*
Lysophosphatidylcholine (C16:0), ratio versus control [12]: 0.98*
Uric acid, ratio versus control [12]: 0.73*
3-Methoxytyrosine, ratio versus control [13]: 1.12
Arginine, ratio versus control [13]: 1.22*
Tryptophan, ratio versus control [13]: 1.1
Glycine, ratio versus control [14]: 0.82*
Threonic acid, ratio versus control [14]: 0.66*
Arginine, ratio versus control [15]: 1.11*
myo-Inositol-2-phosphate, lipid fraction, ratio versus control [15]: 1.44*
Glycine, ratio versus control [16]: 0.95
Threonic acid, ratio versus control [16]: 0.52*
3-Methoxytyrosine, ratio versus control [17]: 1.47*
Arginine, ratio versus control [17]: 0.98
Tryptophan, ratio versus control [17]: 1.18*
myo-Inositol-2-phosphate, lipid fraction, ratio versus control [17]: 1.63*
Glycine, ratio versus control [18]: 0.86*
Threonic acid, ratio versus control [18]: 0.63*
3-Methoxytyrosine, ratio versus control (rat, in vivo): 1.33*
4-Hydroxysphinganine (t18:0, Phytosphingosine), total, ratio versus control (rat, in vivo): 1.16*
Palmitic acid (C16:0), ratio versus control (rat, in vivo): 1.12*
Phosphatidylcholine (C16:0,C16:0), ratio versus control (rat, in vivo): 1.32*
Phosphatidylcholine (C16:0,C20:5), ratio versus control (rat, in vivo): 1.05*
Phosphatidylcholine (C16:0,C22:6), ratio versus control (rat, in vivo): 1.15*
Phosphatidylcholine (C16:1,C18:2), ratio versus control (rat, in vivo): 1.41*
TAG (C18:2,C18:2), ratio versus control (rat, in vivo): 1.41*
Tryptophan, ratio versus control (rat, in vivo): 1.16*
myo-Inositol, lipid fraction, ratio versus control (rat, in vivo): 1.41*
myo-Inositol-2-phosphate, lipid fraction, ratio versus control (rat, in vivo): 1.41*
Compound: O=C1Cc2cc(CCN3CCN(c4nsc5ccccc45)CC3)c(Cl)cc2N1 [Ziprasidone hydrochloride]

Compound: Cn1ncc(C(=O)c2ccc(S(C)(=O)=O)c(C3=NOCC3)c2Cl)c1O [[3-(4,5-dihydro-isoxazol-3-yl)-4-methylsulfonyl-2-chlorphenyl](5-hydroxy-1-methyl-1H-pyrazol-4-yl)methanone]
4-Hydroxyphenylpyruvate, ratio versus control [19]: 26.68*
Glycine, ratio versus control [19]: 1.37*
Phosphatidylcholine (C18:0,C18:2), ratio versus control [19]: 1.12*
Serine, ratio versus control [19]: 1.16*
TAG (C16:0,C18:2), ratio versus control [19]: 2.56*
TAG (C18:1,C18:2), ratio versus control [19]: 2.72*
TAG (C18:2,C18:2), ratio versus control [19]: 3.93*
Threonine, ratio versus control [19]: 1.16
Tyrosine, ratio versus control [19]: 16.36*
gamma-Linolenic acid (C18:cis[6,9,12]3), ratio versus control [19]: 1.44*
5-Oxoproline, ratio versus control [20]: 0.56*
Glutamine, ratio versus control [20]: 0.49*
4-Hydroxyphenylpyruvate, ratio versus control [21]: 25.92*
Glycine, ratio versus control [21]: 1.24*
Phosphatidylcholine (C18:0,C18:2), ratio versus control [21]: 1.12*
Serine, ratio versus control [21]: 1.18*
TAG (C16:0,C18:2), ratio versus control [21]: 2.2*
TAG (C18:1,C18:2), ratio versus control [21]: 2.89*
TAG (C18:2,C18:2), ratio versus control [21]: 2.47*
Threonine, ratio versus control [21]: 1.33*
Tyrosine, ratio versus control [21]: 16.29*
gamma-Linolenic acid (C18:cis[6,9,12]3), ratio versus control [21]: 1.55*
5-Oxoproline, ratio versus control [22]: 0.68*
Glutamine, ratio versus control [22]: 0.53*
4-Hydroxyphenylpyruvate, ratio versus control [23]: 24.95*
Glycine, ratio versus control [23]: 1.25*
Phosphatidylcholine (C18:0,C18:2), ratio versus control [23]: 1.11*
Serine, ratio versus control [23]: 1.14*
TAG (C16:0,C18:2), ratio versus control [23]: 2.44*
TAG (C18:1,C18:2), ratio versus control [23]: 3.2*
TAG (C18:2,C18:2), ratio versus control [23]: 2.77*
Threonine, ratio versus control [23]: 1.24*
Tyrosine, ratio versus control [23]: 12.88*
gamma-Linolenic acid (C18:cis[6,9,12]3), ratio versus control [23]: 1.77*
5-Oxoproline, ratio versus control [24]: 0.58*
Glutamine, ratio versus control [24]: 0.52*
4-Hydroxyphenylpyruvate, ratio versus control [25]: 31.22*
Lysine, ratio versus control [25]: 1.23*
Threonine, ratio versus control [25]: 1.16*
Tyrosine, ratio versus control [25]: 21.56*
5-Oxoproline, ratio versus control [26]: 0.5*
Citrulline, ratio versus control [26]: 0.73*
Glutamine, ratio versus control [26]: 0.41*
Phenylalanine, ratio versus control [26]: 0.79*
4-Hydroxyphenylpyruvate, ratio versus control [27]: 34.78*
Lysine, ratio versus control [27]: 1.32*
Threonine, ratio versus control [27]: 1.2*
Tyrosine, ratio versus control [27]: 18.22*
5-Oxoproline, ratio versus control [28]: 0.58*
Citrulline, ratio versus control [28]: 0.72*
Glutamine, ratio versus control [28]: 0.43*
Phenylalanine, ratio versus control [28]: 0.9*
4-Hydroxyphenylpyruvate, ratio versus control [29]: 25.05*
Lysine, ratio versus control [29]: 1.29*
Threonine, ratio versus control [29]: 1.5*
Tyrosine, ratio versus control [29]: 14.42*
5-Oxoproline, ratio versus control [30]: 0.54*
Citrulline, ratio versus control [30]: 0.8*
Glutamine, ratio versus control [30]: 0.41*
Phenylalanine, ratio versus control [30]: 0.82
